In patent US6638948B1, “Amorphous paroxetine composition” (Pentech Pharmaceuticals, Inc., priority 1996, dated 2003):

Assays:
[1] = reported by Barnes et al. (U.S. Pat. No. 4,721,723); cited from earlier work
[2] = Stability testing: specimen stored in a glass container with HDPE liner, opened and closed periodically, exposing it to atmospheric moisture; moisture and appearance noted; format: physicochemical
Protocol: To a reaction flask containing 100 ml of absolute ethanol was added 13.9 g of paroxetine base. The flask was shaken until a clear solution was obtained. To this paroxetine solution, 10 ml of a solution of hydrochloric acid in absolute ethanol (22% v/v) was added dropwise. As the reaction proceeded to completion, the color of the solution changed from a yellow brown to a pink brown. The product was then vacuum dried in a rotary evaporator. A foamy, amorphous solid was obtained (lot # W951027). The produced amorphous solid was subjected to an additional 2.5 days of drying in a desiccator at reduced pressure. The solid, a free-flowing powder, was tested for composition by NMR and FTIR. The findings were consistent with published spectra for paroxetine. Silver nitrate testing of the solid indicated the presence of chloride in the sample. […] Residual moisture was determined by Karl-Fisher coulometric method at 0.7%. […] X-ray powder diffraction was performed using the powder pack method. The powder patterns were obtained using a Philips PW1710 automated diffractometer, with monochromatized CuKα, (Kα1=1.54060 Å; Kα2=1.54438 Å) radiation. The diffractometer was equipped with a compensating slit and a graphite monochromator. It was calibrated to 0.02° (2θ) using the quartz peak at 26.66θ° (2θ). The minimum peak/background ratio was 0.75. This spectrum is consistent with an amorphous solid form. The halo effect is clearly seen and the intensity is small. Differential scanning calorimetry was performed on the solid at two different heating rates.
A specimen (0.5 g) was stored in a glass container with a HDPE liner for stability testing. The container was opened and closed periodically exposing the specimen to atmospheric moisture. Moisture determination was conducted at intervals of about 3 months.
A solution of paroxetine hydrochloride in absolute ethanol (3.2 g/100 ml) was prepared as described in EXAMPLE 1. The solution was charged into a spray-drying machine (Yamato Chemical Co.) using a standard nozzle (0.1 mm orifice). The inlet temperature was set at 90 degrees Celsius and the outlet temperature at 60 degrees Celsius. The sample was spray dried to a fine, off-white powder (lot # W951026). Following recovery, the material was transferred to a vacuum desiccator and dried under partial vacuum for an additional 2.5 days. The resulting solid, a free-flowing powder, was tested for composition by NMR and FTIR. The findings were consistent with published spectra for paroxetine. Silver nitrate solution addition to an aqueous solution of the powder produced a white precipitate indicative of chloride. […] Residual moisture in the product was 0.8% measured by Karl-Fisher coulometric method. A sample was analyzed by HPLC and found to be free from related substances (purity>99%). This spectrum is consistent with an amorphous form. Differential scanning calorimetry was conducted on the solid.
For stability testing a specimen (9 g) was stored in a glass container with a HDPE liner. The container was opened and closed periodically exposing the specimen to atmospheric moisture. Moisture determination was conducted at intervals of about 3 months.

[3] = 3 months storage, periodic exposure to atmospheric moisture
[4] = 6 months storage, periodic exposure to atmospheric moisture
[5] = Initial, Karl-Fisher coulometric method

Row | Compound | hygroscopicity [1] | APPEARANCE [2, 3] | MOISTURE [2, 3] [% w/w] | APPEARANCE [2, 4] | MOISTURE [2, 4] [% w/w] | APPEARANCE ([2]; Initial) | MOISTURE [2, 5] [% w/w]
1 | Cl.Fc1ccc([C@@H]2CCNC[C@H]2COc2ccc3c(c2)OCO3)cc1 [Amorphous paroxetine hydrochloride, (−)-trans4R-(4′-fluorophenyl)-3S-[(3′4′-methylenedioxy-phenoxy)methyl]-piperidine] | undesirably hygroscopic | – | – | – | – | – | –
2 | Cl.Fc1ccc([C@@H]2CCNC[C@H]2COc2ccc3c(c2)OCO3)cc1 [lot #W951026, (−)-trans4R-(4′-fluorophenyl)-3S-[(3′4′-methylenedioxy-phenoxy)methyl]-piperidine] | – | Free-flowing | 2.1 | Free-flowing | 2.2 | Free-flowing | 0.8
3 | Cl.Fc1ccc([C@@H]2CCNC[C@H]2COc2ccc3c(c2)OCO3)cc1 [lot #W951027, (−)-trans4R-(4′-fluorophenyl)-3S-[(3′4′-methylenedioxy-phenoxy)methyl]-piperidine] | – | Free-flowing | 1.8 | Free-flowing | 2.1 | Free-flowing | 0.7
